# Patent publication US20040005256A1, “Crystallization system utilizing atomization” (priority 2002, published 2004)
# Assay: maximum concentration of D,L-Threonine dissolved in water
# Assay type: physicochemical
# Conditions: solid dissolved in water (solvent) before atomization into acetone anti-solvent
# Protocol: For example, the material-containing solution may be composed of a solvent, such as water, and a material to be crystallized, such as D,L-Threonine, dissolved in the water. The anti-solvent could be acetone. The solid D,L-Threonine is dissolved at its maximum concentration ratio (160 g/L) in water. The D,L-Threonine solution is atomized and introduced into the acetone. The atomized solution and the acetone are then mixed to produce the crystallized product.
compound,measurement,value
"C[C@@H](O)[C@H](N)C(=O)O (racemic) [D,L-Threonine]",maximum concentration ratio in water,160 g/L
